Legend:
[1] = molecular target: T1, YTHDF2-bound mRNAs (PEG10, NOTCH2, CREBBP) in PC-3 cells (Homo sapiens, UniProt Q9Y5A9); experiment: Ribonucleoprotein immunoprecipitation (RIP) followed by qRT-PCR; assay type: cell-based; conditions: 25 μM, 24 h, versus DMSO
T1 construct: endogenous in cells; host or cells: PC-3
T1 sequence (Q9Y5A9 1-579): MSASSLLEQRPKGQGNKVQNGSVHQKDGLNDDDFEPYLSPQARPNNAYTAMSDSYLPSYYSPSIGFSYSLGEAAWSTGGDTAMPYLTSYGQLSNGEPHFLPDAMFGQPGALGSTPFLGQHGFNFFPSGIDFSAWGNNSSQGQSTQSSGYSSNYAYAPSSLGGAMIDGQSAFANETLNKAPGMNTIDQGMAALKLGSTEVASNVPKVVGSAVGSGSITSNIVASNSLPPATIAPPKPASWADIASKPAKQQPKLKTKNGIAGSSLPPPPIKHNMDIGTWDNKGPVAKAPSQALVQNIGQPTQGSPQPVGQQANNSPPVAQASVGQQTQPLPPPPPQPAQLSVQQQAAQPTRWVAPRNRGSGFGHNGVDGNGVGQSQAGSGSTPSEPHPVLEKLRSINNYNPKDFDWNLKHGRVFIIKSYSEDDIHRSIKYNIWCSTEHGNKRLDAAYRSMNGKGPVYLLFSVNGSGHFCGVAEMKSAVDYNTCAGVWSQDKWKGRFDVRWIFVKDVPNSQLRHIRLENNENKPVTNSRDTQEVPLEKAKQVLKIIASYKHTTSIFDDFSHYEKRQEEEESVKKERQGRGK
Protocol: Five million cells were used for each RIP experiment followed by qRT-PCR,[65] without cross-linking steps and using 1–15 μg of the YTHDF2 antibody (Proteintech, 24744-1-AP) or the same amount of the rabbit normal IgG isotype (negative control, Cell Signaling, 2729S). Cells were harvested after 24 h of treatment with 25 μM ebselen and DMSO as the control, lysed with 20 mM Tris–HCl at pH 7.5, 100 mM KCl, 5 mM MgCl2, and 0.5% NP-40 for 10 min on ice, and centrifuged at 15,000g for 10 min at 4 °C. Lysates were then incubated with Dynabead A/G (Thermo Fisher, 10001D/10003D) for pre-clearing for 1 h at 4 °C and then with Dynabeads A/G (80/20 ratio) at RT for 1 h with YTHDF2 or rabbit isotype IgG for Ab coating. After the pre-clearing steps and the coating, lysates were split between YTHDF2 and IgG-coated beads, while 1–5% of the lysate was stored as the input and incubated O/N at 4 °C. Finally, samples were washed with NT2 buffer for five times, 5 min each at 4 °C. […] For each condition, the ΔCt value of IgG and YTHDF2 was evaluated in triplicate. Normalization of the values was then carried out following the percent input method, in which values from IgG and YTHDF2 IP were calculated as % input of the adjusted input values. […] YTHDF2 and IgG fractions were calculated as % input by subtracting to the adjusted input values their ΔCt values. […]

YTHDF1 domain = molecular target: T2, YTHDF1 domain (Homo sapiens, UniProt Q9BYJ9); experiment: High-throughput screen, tryptophan quenching, Z-score; assay type: binding; conditions: 5 μM protein, compounds at 10 μM
T2 construct: The human YTHDF1 YTH domain (amino acids 365–554, PDB: 4RCJ); host or cells: E. coli BL21(DE3)
T2 sequence (Q9BYJ9 365-554): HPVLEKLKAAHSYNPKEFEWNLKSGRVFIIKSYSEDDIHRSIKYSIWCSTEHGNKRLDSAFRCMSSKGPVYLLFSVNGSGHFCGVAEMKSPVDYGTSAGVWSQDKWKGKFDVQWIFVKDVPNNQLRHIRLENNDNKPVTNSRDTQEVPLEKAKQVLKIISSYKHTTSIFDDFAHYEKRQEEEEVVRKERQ
Protocol: A Z factor of 0.53 was obtained. The high-throughput screen was performed by using an automatic liquid handling (Freedom EVO, Tecan), filling black 384-well plates with 15 μL of 5 μM protein in 20 mM Tris (pH 7.5), 150 mM NaCl, and 10% glycerol, and then by adding the library of compounds at a final concentration of 10 μM. Fluorescence was measured immediately after compound addition. The library used was the Spectrum Collection (Microsource Discovery System, Inc.), composed of 2560 compounds, of whom 60% are clinically used drugs, 25% natural products, and 15% other bioactive molecules. The Z-score was calculated as (X – μp)/σp, where X is the fluorescence intensity of the protein. Candidate molecules were considered all of the ones that were under the threshold of Z = −3, while all of the ones over that value were discarded.

PC-3 cells = experiment: Cell viability assay (OZBlue); assay type: cell-based; conditions: Homo sapiens
Protocol: PC-3 cells were seeded and treated in 96 plates for 24, 48, and 72 h. Cell viability was assessed by adding to the cells 10% of the culture medium volume of the OZBlue reagent (OZ Biosciences). Cells were incubated at 37 °C for 1 h. Fluorescence was then determined (excitation 560 nm and emission 590 nm) by a Tecan microplate reader. Cell survival was calculated with respect to control (DMSO), and IC50 values were determined by fitting with GraphPad Prism software.

O=c1c2ccccc2[se]n1-c1ccccc1 [Compound 1, 2-phenyl-1,2-benzisoselenazol-3(2H)-one]
YTHDF2-bound target mRNA levels (RIP, in words) [1]: decrease of the mRNA levels compared to control samples
Mean(FI.z-score) (YTHDF1 domain): -3.819
IC50 (PC-3 cells; 24 h): 58.8 µM
IC50 (PC-3 cells; 48 h): 49.6 µM
IC50 (PC-3 cells; 72 h): 26.8 µM

From article PMC9578143, “Small-Molecule Ebselen Binds to YTHDF Proteins Interfering with the Recognition of N^6-Methyladenosine-Modified RNAs” (ACS Pharmacology & Translational Science, 2022)
